The values below come from EP0211863B1, “VITAMIN D DERIVATIVES AND METHODS FOR PREPARING SAME” (WISCONSIN ALUMNI RESEARCH FOUNDATION, priority 1985, dated 1986).

Experiment [1] is described as follows: Bone calcium mobilization activity (serum calcium by atomic absorption). The note with it: male weanling rats on low calcium, vitamin D deficient diet for 3 weeks; 650 pmole intrajugularly, 7 h prior to sacrifice; ± standard deviation from the mean. It counts as in vivo. The protocol:
Bone calcium mobilization activity of 1α,25-(OH)₂-26-homo-D₃ compounds
Male weanling rats were purchased from Holtzman Co., Madison, Wis. and fed ad libitum a low calcium, vitamin D deficient diet as described by Suda et al (J. Nutrition 100: 1049, 1970) and water for 3 weeks. The rats were then divided into 4 groups of 6 each and were intrajugularly given respectively 650 pmole of either 1α,25-(OH)₂-26-homo-D₃, 1α,25-(OH)₂-(22E)Δ²²-26-homo-D₃ or 1α,25-(OH)₂D₃ dissolved in 0.05 ml of 95% ethanol 7 h prior to sacrifice. […] The rats in the control group were given 0.05 ml of ethanol vehicle in the same manner. They were killed by decapitation, the blood was collected and centrifuged to obtain serum. Serum calcium concentration was determined with an atomic absorption spectrophotometer (Perkin-Elmer Model 214) in presence of 0.1% lanthanum chloride.

The subject of experiment [2] is human promyelocytic leukemia cells (HL-60 cells). Kind of experiment: Phagocytosis assay for differentiation activity. The class given is cell-based. The conditions noted are these: four days (96 hr) incubation. How it is done:
(§1) The human promyelocytic leukemia cell line (HL-60) was maintained in suspension culture in RPMl 1640 medium (Gibco, Grand Island, NY) supplemented with 10% (v/v) heat inactivated fetal calf serum, 100 ug/ml penicillin, 100 µg/ml streptomycin and 0.25 µg/ml fungizone. Cells were cultured in a humidified atmosphere with 5% CO₂. Cell viability was assessed by standard assays, e.g. trypan blue exclusion. Morphological evaluations were done on Wright stained slide preparations.
(§2) Cells were seeded at 1.5 - 2 x 10⁵ cells/ml in 10 ml of medium in tissue culture dishes. […] Control cultures were treated with the same concentration of ethanol. After four days (96 hr) of incubation with test compounds, the cells were harvested from these culture dishes and cell number and viability were determined. […] After incubation of this mixture for 1 hr at 37°C, the number of phagocytic cells was counted (as determined by the trypan blue stained yeast appearing intracellularly) and expressed as a percent of the total viable cells present. […] After standing in a water bath for 30 min, the differentiated cells (i.e. the cells showing formazan blue deposits indicative of NBT reduction) were counted with a hemocytometer and expressed as the percent of total viable cells present.

Experiment [3] has the same test system. The experiment in a line: NBT-reduction assay for differentiation. It counts as cell-based. The conditions noted are these: four days (96 hr) incubation, read-out: concentration to achieve 60% differentiation. How it is done: as §1, §2

The structures appear in SMILES notation.

`C=C1/C(=C\C=C2/CCC[C@]3(C)[C@@H]([C@H](C)CCCC(C)(O)CC)CC[C@@H]23)C[C@@H](O)C[C@@H]1O` (stereo partly drawn) [1α,25-(OH)₂-26-homo-D₃, (25ξ)-1α,25-Dihydroxy-26-homovitamin D₃]: in experiment [1], the “Serum Calcium Concentration” value is 4.6 ± 0.2 ^b^) mg/100 ml.
As for `C=C1/C(=C\C=C2/CCC[C@]3(C)[C@@H]([C@H](C)/C=C/CC(C)(O)CC)CC[C@@H]23)C[C@@H](O)C[C@@H]1O` (stereo partly drawn) [1α,25-(OH)₂-(22E)Δ²²-26-homo-D₃, (22E,25ξ)-1α,25-Dihydroxy-22-dehydro-26-homovitamin D₃], in experiment [1], the “Serum Calcium Concentration” value is on record as 4.6 ± 0.3 ^b^) mg/100 ml.
For `C=C1/C(=C\C=C2/CCC[C@]3(C)[C@@H]([C@H](C)CCCC(C)(C)O)CC[C@@H]23)C[C@@H](O)C[C@@H]1O` [1α,25-(OH)₂D₃, 1α,25-dihydroxyvitamin D₃], in experiment [1], the “Serum Calcium Concentration” value is reported as 4.5 ± 0.2 ^b^) mg/100 ml. Moreover, the EC50 in experiment [2] (Homo sapiens, HL-60, phagocytosis assay, read-out: concentration to achieve 50% differentiation) was roughly 10 nM. Also, the “differentiation (% phagocytic cells)” value in experiment [2] (concentration of 10⁻⁸ molar) is reported as “about 47%”. The EC60 in experiment [3] amounted to 35 nM.
